Experimental data reported in patent US20160185797A1, “ALKYNYL ALCOHOLS AND METHODS OF USE” (Genentech, Inc., priority 2013, published 2016).

How the values were obtained:
[1] = molecular target: T1, nuclear factor-kappa B (NF-kB)-inducing kinase (NIK) (Homo sapiens, UniProt Q99558); assay: NIK enzyme inhibition assay (Transcreener ADP fluorescence polarization, NIK ADP-FP); type: biochemical
T1 construct: made in house; host or cells: baculovirus-infected insect cells

[2] = system: p52 (NF-kB2) nuclear translocation in HeLa cells; assay: p52 (NF-kB2) nuclear translocation assay in HeLa cells, anti-lymphotoxin beta receptor antibody stimulated (non-classical NF-kB signaling), high content imaging; type: cell-based; conditions: Homo sapiens, 100 ng/mL anti-lymphotoxin beta receptor antibody for 5 hours, read-out: p52 HeLa Transloc Assay (IC50)
Experimental: (§1) Several assays were developed to profile the cellular activities of NIK inhibitors.
(§2) (2) A second set of cell assay are used to define the selectivity of NIK inhibitors toward inhibition of classical vs. non-classical NF-kB signaling and rely on quantification of the nuclear translocation of p52 (NF-kB2) and REL-A (p65) using high content cellular imaging. For the p52 (non-classical NF-kB signaling) nuclear translocation assay, HeLa cells are treated with different concentrations of compounds (0.2% DMSO final) in medium containing 10% fetal bovine serum and then stimulated with 100 ng/mL of an anti-lymphotoxin beta receptor antibody (R&D Systems) for 5 hours. In the REL-A nuclear translocation assay, HeLa cells are incubated with compounds (0.2% DMSO final) for 4.5 hours in medium containing 10% fetal bovine serum before stimulating them with 10 ng/mL tumor necrosis factor (TNF)-α (R&D Systems) for 30 minutes. Cells are fixed with 4% paraformaldehyde, permeabilized by adding 0.1% Triton X-100 in phosphate buffered saline, and then are incubated with either 2 ug/mL anti-p52 antibody (Millipore) or 400 ng/mL anti-REL-A (p65) antibody (Santa Cruz Biotechnology). Finally, the cells are incubated with an Alexa488-labeled secondary antibody (Invitrogen) and DRAQ5 DNA stain (Biostatus). Imaging is carried out using an Opera reader (Perkin Elmer) and data are analyzed with the aid of Acapella software (Perkin Elmer). The p52 or REL-Atranslocation into the nucleus is quantified by the ratio of the nuclear to cytoplasmic signal intensity. […] The compounds in listed in Table 1 have the corresponding inhibitory value (IC50 in micromolar) for NIK p52 Translocation Assay as set forth in Table 2.
(§3) The compounds in listed in Table 1 have the corresponding inhibitory values (IC50 in micromolar) for the Translocation Assays as set forth in Table 2.

[3] = system: REL-A (p65) nuclear translocation in HeLa cells; assay: REL-A (p65) nuclear translocation assay in HeLa cells, TNF-α stimulated (classical NF-kB signaling), high content imaging; type: cell-based; conditions: Homo sapiens, HeLa, compound 4.5 h, then 10 ng/mL TNF-α for 30 minutes, read-out: REL-A HeLa Transloc Assay (IC50)
Experimental: as §1, §2, §3

T1 sequence (Q99558 whole entry): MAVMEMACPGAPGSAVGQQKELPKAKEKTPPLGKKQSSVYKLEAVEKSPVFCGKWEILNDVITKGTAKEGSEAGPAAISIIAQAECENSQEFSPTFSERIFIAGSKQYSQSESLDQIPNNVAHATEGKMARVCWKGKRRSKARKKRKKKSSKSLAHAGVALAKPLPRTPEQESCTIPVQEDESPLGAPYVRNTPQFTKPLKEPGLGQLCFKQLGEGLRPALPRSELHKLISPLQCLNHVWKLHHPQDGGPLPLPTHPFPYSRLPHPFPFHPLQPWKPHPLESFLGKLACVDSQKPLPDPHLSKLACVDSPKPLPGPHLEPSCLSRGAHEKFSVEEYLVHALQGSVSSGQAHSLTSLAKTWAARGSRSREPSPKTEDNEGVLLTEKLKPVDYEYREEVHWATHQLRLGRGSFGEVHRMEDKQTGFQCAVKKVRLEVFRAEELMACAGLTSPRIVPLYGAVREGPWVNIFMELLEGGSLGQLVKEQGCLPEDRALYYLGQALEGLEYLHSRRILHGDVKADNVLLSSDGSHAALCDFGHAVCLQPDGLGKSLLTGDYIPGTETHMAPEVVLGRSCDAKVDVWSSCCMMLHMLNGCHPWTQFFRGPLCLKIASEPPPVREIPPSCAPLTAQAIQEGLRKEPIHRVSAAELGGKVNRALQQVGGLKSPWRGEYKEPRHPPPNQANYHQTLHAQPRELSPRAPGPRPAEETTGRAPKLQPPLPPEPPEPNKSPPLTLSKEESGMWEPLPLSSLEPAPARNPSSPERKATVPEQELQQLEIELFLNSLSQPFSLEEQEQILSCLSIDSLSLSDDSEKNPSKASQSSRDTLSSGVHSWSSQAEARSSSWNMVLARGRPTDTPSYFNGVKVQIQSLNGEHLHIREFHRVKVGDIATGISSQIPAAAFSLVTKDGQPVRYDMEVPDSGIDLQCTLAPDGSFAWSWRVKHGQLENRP

Row | Compound | Ki [1] [nM] | IC50 [2] [nM] | IC50 [3] [nM]
1 | CN1CC[C@@](O)(C#Cc2cccc(-c3nc(C(N)=O)c(NC[C@H]4CCO4)cc3F)c2)C1=O [Example 82, 5-fluoro-6-[3-[2-[(3R)-3-hydroxy-1-methyl-2-oxo-pyrrolidin-3-yl]ethynyl]phenyl]-3-[[(2R)-oxetan-2-yl]methylamino] pyridine-2-carboxamide] | 0.33 | 95.5 | ≥ 2000
2 | C[C@H]1CCN1c1cc(C(N)=O)nc(-c2cccc(C#C[C@]3(O)CCN(C)C3=O)c2)n1 [Example 23, 2-[3-[2-[(3R)-3-hydroxy-1-methyl-2-oxo-pyrrolidin-3-yl]ethynyl]phenyl]-6-[(2S)-2-methylazetidin-1-yl] pyrimidine-4-carboxamide] | 1.48 | 96.1 | > 20000
3 | CN1CC[C@@](O)(C#Cc2cc(F)cc(-c3nc(C(N)=O)cn4ccnc34)c2)C1=O [Example 161, 8-[3-fluoro-5-[2-[(3R)-3-hydroxy-l-methyl-2-oxo-pyrrolidin-3-yl]ethynyl]phenyl]imidazol [1,2-a]pyrazine-6-carboxamide] | 0.33 | 445 | > 2000
4 | Cc1ccnn1-c1cc(C(N)=O)nc(-c2cccc(C#C[C@]3(O)CCN(C)C3=O)c2)n1 [Example 71, 2-[3-[2-[(3R)-3-hydroxy-1-methyl-2-oxo-pyrrolidin-3-yl]ethynyl]phenyl]-6-(5-methylpyrazol-1-yl) pyrimidine-4-carboxamide] | 0.18 | 8.94 | ≥ 20000
5 | Cc1cn[nH]c1-c1cc(C(N)=O)nc(-c2cccc(C#C[C@]3(O)CCN(C)C3=O)c2)n1 [Example 155, 2-[3-[2-[(3R)-3-hydroxy-l-methyl-2-oxo-pyrrolidin-3-yl]ethynyl]phenyl]-6-(4-methyl-1H-pyrazol-5-yl) pyrimidine-4-carboxamide] | < 0.05 | 277 | > 2000
6 | CN1CC[C@@](O)(C#Cc2cccc(-c3nc(OC4COC4)c(N)c(C(N)=O)n3)c2)C1=O [Example 106, 5-amino-2-[3-[2-[(3R)-3-hydroxy-1-methyl-2-oxo-pyrrolidin-3-yl]ethynyl]phenyl]-6-(oxetan-3-yloxy)pyrimidine-4-carboxamide] | 0.25 | 70 | ≥ 2000
7 | CN1CC[C@@](O)(C#Cc2cccc(-c3nc(C(N)=O)cc(N4CC(F)(F)C4)n3)c2)C1=O [Example 8, 6-(3,3-difluoroazetidin-1-yl)-2-[3-[2-[(3R)-3-hydroxy-1-methyl-2-oxo-pyrrolidin-3-yl]ethynyl]phenyl]pyrimidine-4-carboxamide] | 2.35 | 211 | > 20000
8 | COC(C)(C)CNc1cnc(-c2cccc(C#C[C@]3(O)CCN(C)C3=O)c2)nc1C(N)=O [Example 101, 2-[3-[2-[(3R)-3-hydroxy-1-methyl-2-oxo-pyrrolidin-3-yl]ethynyl]phenyl]-5-[(2-methoxy-2-methyl-propyl)amino]pyrimidine-4-carboxamide] | 0.52 | 92.6 | ≥ 20000
9 | CN1CC[C@@](O)(C#Cc2cccc(-c3nc(C(N)=O)cc(-c4ccn(C)n4)n3)c2)C1=O [Example 68, 2-[3-[2-[(3R)-3-hydroxy-1-methyl-2-oxo-pyrrolidin-3-yl]ethynyl]phenyl]-6-(1-methylpyrazol-3-yl) pyrimidine-4-carboxamide] | 0.53 | 89.4 | ≥ 20000
10 | Cc1cc(C(N)=O)nc(-c2cccc(C#C[C@]3(O)CCN(C)C3=O)c2)c1 [Example 123, 6-[3-[2-[(3R)-3-hydroxy-1-methyl-2-oxo-pyrrolidin-3-yl]ethynyl]phenyl]-4-methyl-pyridine-2-carboxamide] | 0.09 | 79.4 | ≥ 2000
11 | COCCNc1cc(F)c(-c2cccc(C#C[C@]3(O)CCN(C)C3=O)c2)nc1C(N)=O [Example 80, 5-fluoro-6-[3-[2-[(3R)-3-hydroxy-1-methyl-2-oxo-pyrrolidin-3-yl]ethynyl]phenyl]-3-(2-methoxyethylamino) pyridine-2-carboxamide] | 0.05 | 4.65 | ≥ 20000
12 | CON(C)c1cc(C(N)=O)nc(-c2cccc(C#C[C@]3(O)CCN(C)C3=O)c2)n1 [Example 19, 2-[3-[2-[(3R)-3-hydroxy-1-methyl-2-oxo-pyrrolidin-3-yl]ethynyl]phenyl]-6-[methoxy (methyl)amino]pyrimidine-4-carboxamide] | 1.1 | 45.5 | > 20000
13 | CN1CC[C@@](O)(C#Cc2cccc(-c3nc(OC4CCOCC4)c(N)c(C(N)=O)n3)c2)C1=O [Example 107, 5-amino-2-[3-[2-[(3R)-3-hydroxy-1-methyl-2-oxo-pyrrolidin-3-yl]ethynyl]phenyl]-6-tetrahydropyran-4-yloxy-pyrimidine-4-carboxamide] | 0.4 | 269 | ≥ 2000
14 | CN1CC[C@@](O)(C#Cc2cccc(-c3ncc(N[C@@H]4CCOC4)c(C(N)=O)n3)c2)C1=O [Example 143, 2-[3-[2-[(3R)-3-hydroxy-1-methyl-2-oxo-pyrrolidin-3-yl]ethynyl]phenyl]-5-[[(3R)-tetrahydrofuran-3-yl]amino] pyrimidine-4-carboxamide] | 0.05 | 8.12 | ≥ 20000
15 | COCCNc1cnc(-c2cc(C#C[C@]3(O)CCN(C)C3=O)ccc2F)nc1C(N)=O [Example 109, 2-[2-fluoro-5-[2-[(3R)-3-hydroxy-1-methyl-2-oxo-pyrrolidin-3-yl]ethynyl]phenyl]-5-(2-methoxyethylamino) pyrimidine-4-carboxamide] | 0.28 | 83.1 | ≥ 2000
16 | Cc1ccnn1-c1cc(C(N)=O)nc(-c2ccc(F)c(C#C[C@]3(O)CCN(C)C3=O)c2)n1 [Example 111, 2-[4-fluoro-3-[2-[(3R)-3-hydroxy-1-methyl-2-oxo-pyrrolidin-3-yl]ethynyl]phenyl]-6-(5-methylpyrazol-1-yl)pyrimidine-4-carboxamide] | 0.37 | 75.8 | ≥ 2000
17 | CN1CC[C@@](O)(C#Cc2ccc(F)c(-c3cnc(N)c(C(N)=O)n3)c2)C1=O [Example 117, 3-amino-6-[2-fluoro-5-[2-[(3R)-3-hydroxy-1-methyl-2-oxo-pyrrolidin-3-yl]ethynyl]phenyl] pyrazine-2-carboxamide] | 0.05 | 12.5 | ≥ 20000
18 | CN1CC[C@@](O)(C#Cc2cccc(-c3cc4c(Cl)c[nH]c4c(C(N)=O)n3)c2)C1=O [Example 78, 3-chloro-5-[3-[2-[(3R)-3-hydroxy-1-methyl-2-oxo-pyrrolidin-3-yl]ethynyl]phenyl]-1H-pyrrolo[2,3-c]pyridine-7-carboxamide] | 0.1 | 8.3 | 15700
19 | COc1cc(C(N)=O)nc(-c2cc(F)cc(C#C[C@]3(O)CCN(C)C3=O)c2)c1 [Example 171, 6-[3-fluoro-5-[2-[(3R)-3-hydroxy-1-methyl-2-oxo-pyrrolidin-3-yl]ethynyl]phenyl]-4-methoxy-pyridine-2-carboxamide] | 0.24 | 132 | > 2000
20 | COCCOc1nc(-c2cccc(C#C[C@]3(O)CCN(C)C3=O)c2)nc(C(N)=O)c1N [Example 108, 5-amino-2-[3-[2-[(3R)-3-hydroxy-1-methyl-2-oxo-pyrrolidin-3-yl]ethynyl]phenyl]-6-(2-methoxyethoxy)pyrimidine-4-carboxamide] | 0.65 | 213 | ≥ 2000
21 | COc1ccc2nc(-c3cccc(C#C[C@]4(O)CCN(C)C4=O)c3)nc(C(N)=O)c2c1 [Example 93, 2-[3-[2-[(3R)-3-hydroxy-1-methyl-2-oxo-pyrrolidin-3-yl]ethynyl]phenyl]-6-methoxy-quinazoline-4-carboxamide] | 0.15 | 21 | 6320
22 | CN1CC[C@@](O)(C#Cc2cccc(-c3ncc(NCC4(C)COC4)c(C(N)=O)n3)c2)C1=O [Example 105, 2-[3-[2-[(3R)-3-hydroxy-1-methyl-2-oxo-pyrrolidin-3-yl]ethynyl]phenyl]-5-[(3-methyloxetan-3-yl)methylamino]pyrimidine-4-carboxamide] | 0.35 | 73.3 | ≥ 2000
23 | CN1CC[C@@](O)(C#Cc2cccc(-c3ncc(NCCN4CCOCC4)c(C(N)=O)n3)c2)C1=O [Example 102, 2-[3-[2-[(3R)-3-hydroxy-1-methyl-2-oxo-pyrrolidin-3-yl]ethynyl]phenyl]-5-(2-morpholinoethylamino) pyrimidine-4-carboxamide] | 0.21 | 66.9 | ≥ 20000
